Experimental findings from ChEMBL document CHEMBL5442175, “EUbOPEN Chemogenomics Library - PDSP Secondary Binding” (2024) are described below.

Where a name gives a salt, the structure may show the parent alone. A value given as a limit tells only on which side of the number the result lay.

By Ki is commonly meant the dissociation constant of the complex between target and ligand, obtained from inhibition or displacement. A higher Ki goes with lower affinity.

One assay concerns the target T1, D(4) dopamine receptor (Homo sapiens, UniProt P21917).
T1 sequence (P21917 whole entry): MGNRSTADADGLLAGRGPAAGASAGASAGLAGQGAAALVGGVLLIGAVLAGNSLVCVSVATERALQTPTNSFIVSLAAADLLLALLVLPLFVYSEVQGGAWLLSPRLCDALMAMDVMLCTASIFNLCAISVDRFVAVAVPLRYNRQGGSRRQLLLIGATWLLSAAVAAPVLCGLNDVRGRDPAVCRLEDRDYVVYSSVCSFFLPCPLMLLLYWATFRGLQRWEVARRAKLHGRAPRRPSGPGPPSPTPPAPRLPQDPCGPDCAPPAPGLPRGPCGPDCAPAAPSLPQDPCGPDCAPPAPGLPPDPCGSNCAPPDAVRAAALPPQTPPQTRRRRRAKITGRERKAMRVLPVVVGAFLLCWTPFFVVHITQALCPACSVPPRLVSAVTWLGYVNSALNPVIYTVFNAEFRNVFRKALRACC
As to the kind of experiment: PDSP Secondary Binding target: DRD4 - Compounds are tested at 10 uM concentration, plate are incubated at room temperature in the dark for 90 minutes. Reaction are stopped by vacuum filtration onto 0.3% polyethyleneimine soaked filter mats using Filtermate harvester. Scintillation cocktail is then melted onto microwave-dried filters on a hot plate and the radio activity is counted in Microbia counter.

Another assay addresses Translocator protein (Homo sapiens, UniProt P30536). As to the kind of experiment: PDSP Secondary Binding target: TSPO - Compounds are tested at 10 uM concentration, plate are incubated at room temperature in the dark for 90 minutes. Reaction are stopped by vacuum filtration onto 0.3% polyethyleneimine soaked filter mats using Filtermate harvester. Scintillation cocktail is then melted onto microwave-dried filters on a hot plate and the radio activity is counted in Microbia counter.

Assay [1] has as its target T2, Muscarinic acetylcholine receptor M2 (Homo sapiens, UniProt P08172).
T2 sequence (P08172 whole entry): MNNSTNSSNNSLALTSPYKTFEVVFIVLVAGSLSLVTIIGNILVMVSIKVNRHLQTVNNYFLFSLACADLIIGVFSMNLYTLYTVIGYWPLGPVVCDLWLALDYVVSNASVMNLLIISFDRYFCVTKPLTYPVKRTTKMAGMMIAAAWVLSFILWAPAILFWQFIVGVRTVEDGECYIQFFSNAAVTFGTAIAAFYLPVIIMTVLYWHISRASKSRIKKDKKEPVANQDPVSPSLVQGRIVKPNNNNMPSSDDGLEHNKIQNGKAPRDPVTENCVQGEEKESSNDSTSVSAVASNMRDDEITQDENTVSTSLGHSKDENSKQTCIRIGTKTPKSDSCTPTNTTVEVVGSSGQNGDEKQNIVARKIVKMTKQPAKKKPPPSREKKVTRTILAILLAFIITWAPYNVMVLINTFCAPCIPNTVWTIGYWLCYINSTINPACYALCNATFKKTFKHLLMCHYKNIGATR
As to the kind of experiment: PDSP Secondary Binding target: CHRM2 - Compounds are tested at 10 uM concentration, plate are incubated at room temperature in the dark for 90 minutes. Reaction are stopped by vacuum filtration onto 0.3% polyethyleneimine soaked filter mats using Filtermate harvester. Scintillation cocktail is then melted onto microwave-dried filters on a hot plate and the radio activity is counted in Microbia counter.

The next assay concerns the target Histamine H2 receptor (Homo sapiens, UniProt P25021). As to the kind of experiment: PDSP Secondary Binding target: HRH2 - Compounds are tested at 10 uM concentration, plate are incubated at room temperature in the dark for 90 minutes. Reaction are stopped by vacuum filtration onto 0.3% polyethyleneimine soaked filter mats using Filtermate harvester. Scintillation cocktail is then melted onto microwave-dried filters on a hot plate and the radio activity is counted in Microbia counter.

Assay [2] deals with Beta-1 adrenergic receptor (Homo sapiens, UniProt P08588). As to the kind of experiment: PDSP Secondary Binding target: ADRB1 - Compounds are tested at 10 uM concentration, plate are incubated at room temperature in the dark for 90 minutes. Reaction are stopped by vacuum filtration onto 0.3% polyethyleneimine soaked filter mats using Filtermate harvester. Scintillation cocktail is then melted onto microwave-dried filters on a hot plate and the radio activity is counted in Microbia counter.

The target of assay [3] is Sodium-dependent serotonin transporter (Homo sapiens, UniProt P31645). Kind of assay: PDSP Secondary Binding target: SLC6A4 - Compounds are tested at 10 uM concentration, plate are incubated at room temperature in the dark for 90 minutes. Reaction are stopped by vacuum filtration onto 0.3% polyethyleneimine soaked filter mats using Filtermate harvester. Scintillation cocktail is then melted onto microwave-dried filters on a hot plate and the radio activity is counted in Microbia counter.

For assay [4], the target named is Delta-type opioid receptor (Homo sapiens, UniProt P41143). Kind of assay: PDSP Secondary Binding target: OPRD1 - Compounds are tested at 10 uM concentration, plate are incubated at room temperature in the dark for 90 minutes. Reaction are stopped by vacuum filtration onto 0.3% polyethyleneimine soaked filter mats using Filtermate harvester. Scintillation cocktail is then melted onto microwave-dried filters on a hot plate and the radio activity is counted in Microbia counter.

Another assay addresses Histamine H4 receptor (Homo sapiens, UniProt Q9H3N8). Kind of assay: PDSP Secondary Binding target: HRH4 - Compounds are tested at 10 uM concentration, plate are incubated at room temperature in the dark for 90 minutes. Reaction are stopped by vacuum filtration onto 0.3% polyethyleneimine soaked filter mats using Filtermate harvester. Scintillation cocktail is then melted onto microwave-dried filters on a hot plate and the radio activity is counted in Microbia counter.

Sodium-dependent serotonin transporter, sequence (P31645 whole entry): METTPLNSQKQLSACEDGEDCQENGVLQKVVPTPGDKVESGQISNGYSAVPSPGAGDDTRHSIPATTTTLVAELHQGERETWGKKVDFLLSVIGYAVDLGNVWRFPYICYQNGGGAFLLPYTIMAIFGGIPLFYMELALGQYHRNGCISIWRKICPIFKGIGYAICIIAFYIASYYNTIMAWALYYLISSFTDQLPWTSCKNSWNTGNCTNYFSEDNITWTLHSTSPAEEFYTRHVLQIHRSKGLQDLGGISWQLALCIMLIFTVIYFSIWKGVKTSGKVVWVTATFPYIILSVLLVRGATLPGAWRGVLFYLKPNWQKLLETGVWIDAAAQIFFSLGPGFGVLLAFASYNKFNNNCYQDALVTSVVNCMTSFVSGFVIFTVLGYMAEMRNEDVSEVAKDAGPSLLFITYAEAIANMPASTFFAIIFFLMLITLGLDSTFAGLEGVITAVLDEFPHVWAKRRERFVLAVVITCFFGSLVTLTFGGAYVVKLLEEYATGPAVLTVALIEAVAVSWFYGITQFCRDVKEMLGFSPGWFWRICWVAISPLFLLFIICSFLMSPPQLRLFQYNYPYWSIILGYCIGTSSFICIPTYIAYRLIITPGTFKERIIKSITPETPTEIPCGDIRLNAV
Histamine H2 receptor, sequence (P25021 whole entry): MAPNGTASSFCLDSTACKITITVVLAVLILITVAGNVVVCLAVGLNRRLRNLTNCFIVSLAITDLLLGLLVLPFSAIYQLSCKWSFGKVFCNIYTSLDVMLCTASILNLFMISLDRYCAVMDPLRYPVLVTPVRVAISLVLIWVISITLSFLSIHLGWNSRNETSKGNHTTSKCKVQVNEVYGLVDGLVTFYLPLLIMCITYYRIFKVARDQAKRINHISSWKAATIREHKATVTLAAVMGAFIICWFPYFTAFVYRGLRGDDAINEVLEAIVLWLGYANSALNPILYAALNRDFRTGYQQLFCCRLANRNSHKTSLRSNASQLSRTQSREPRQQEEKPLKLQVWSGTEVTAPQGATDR
Translocator protein, sequence (P30536 whole entry): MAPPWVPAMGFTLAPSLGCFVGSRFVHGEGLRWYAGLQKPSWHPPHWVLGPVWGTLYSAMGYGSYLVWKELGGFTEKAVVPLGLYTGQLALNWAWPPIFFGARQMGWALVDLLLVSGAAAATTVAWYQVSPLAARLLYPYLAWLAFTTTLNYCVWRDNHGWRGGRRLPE
Beta-1 adrenergic receptor, sequence (P08588 whole entry): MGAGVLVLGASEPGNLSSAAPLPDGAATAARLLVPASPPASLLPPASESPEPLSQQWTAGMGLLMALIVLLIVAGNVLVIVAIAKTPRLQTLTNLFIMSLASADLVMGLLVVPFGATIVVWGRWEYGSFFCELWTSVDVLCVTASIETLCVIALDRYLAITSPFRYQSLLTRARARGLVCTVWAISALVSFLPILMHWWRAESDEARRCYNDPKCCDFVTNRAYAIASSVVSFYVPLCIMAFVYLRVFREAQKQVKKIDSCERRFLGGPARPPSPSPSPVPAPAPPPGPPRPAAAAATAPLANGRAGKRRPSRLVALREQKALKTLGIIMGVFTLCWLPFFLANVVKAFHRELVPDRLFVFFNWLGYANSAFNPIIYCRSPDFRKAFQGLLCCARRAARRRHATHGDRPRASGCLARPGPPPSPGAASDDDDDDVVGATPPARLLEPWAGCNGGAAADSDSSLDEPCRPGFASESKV
Histamine H4 receptor, sequence (Q9H3N8 whole entry): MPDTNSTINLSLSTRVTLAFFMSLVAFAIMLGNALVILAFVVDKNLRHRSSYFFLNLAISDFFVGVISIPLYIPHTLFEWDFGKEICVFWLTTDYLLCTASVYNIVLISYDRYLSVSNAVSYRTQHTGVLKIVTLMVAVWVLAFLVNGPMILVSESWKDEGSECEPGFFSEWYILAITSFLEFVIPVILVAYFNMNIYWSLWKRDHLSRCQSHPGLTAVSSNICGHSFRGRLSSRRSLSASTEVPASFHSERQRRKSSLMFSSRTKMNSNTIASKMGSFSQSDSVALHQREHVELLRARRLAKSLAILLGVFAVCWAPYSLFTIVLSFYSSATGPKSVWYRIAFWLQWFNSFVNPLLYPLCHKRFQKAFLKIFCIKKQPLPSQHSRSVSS
Delta-type opioid receptor, sequence (P41143 whole entry): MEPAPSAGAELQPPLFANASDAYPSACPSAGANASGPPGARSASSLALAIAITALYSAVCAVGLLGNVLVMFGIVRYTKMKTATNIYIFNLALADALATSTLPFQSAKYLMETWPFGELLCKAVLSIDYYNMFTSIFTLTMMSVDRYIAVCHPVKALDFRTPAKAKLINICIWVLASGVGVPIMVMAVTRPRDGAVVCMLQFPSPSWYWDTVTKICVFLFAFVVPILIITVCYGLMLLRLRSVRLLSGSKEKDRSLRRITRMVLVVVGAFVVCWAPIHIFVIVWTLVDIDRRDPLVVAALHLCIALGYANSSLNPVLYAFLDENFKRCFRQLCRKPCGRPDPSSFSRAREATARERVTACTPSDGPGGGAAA

`N#Cc1ccc2[nH]cc(CCCCN3CCN(c4ccc5oc(C(N)=O)cc5c4)CC3)c2c1` [VILAZODONE HYDROCHLORIDE] had a Ki on D(4) dopamine receptor of 0.824 µM. That is a sub-micromolar value.

`CCCCCNC(=N)N/N=C/c1c[nH]c2ccc(OC)cc12` [TEGASEROD MALEATE] yielded a Ki on D(4) dopamine receptor of 0.191 µM.

At Translocator protein, `CCc1ccc(OCc2ccccc2C(=O)Nc2ccc3nc(C)cc(N)c3c2)cc1` displayed a Ki of 4.01 µM.

Consider `Cc1cn2cc(CC(=O)N3CCC4(CC3)CN(Cc3ccc(-n5nccn5)cc3Cl)C4)nc2s1`, for which the Ki turned out to be 1.36 µM at D(4) dopamine receptor, 0.243 µM in assay [1] and 3.3 µM on Histamine H2 receptor.

Regarding `Clc1cccc(COc2cncc(N3CCNCC3)n2)c1`, in assay [2], the Ki is 2.03 µM.

In the case of `COC(=O)C1=C(C)NC(C)=C(C(=O)OCCCN2CCC(c3ccccc3)(c3ccccc3)CC2)[C@H]1c1cccc([N+](=O)[O-])c1` [NIGULDIPINE], the Ki at Translocator protein came out at 0.953 µM; in assay [3], 0.862 µM; in assay [4], 0.399 µM.

The compound `CCc1cc2c(cc1CC)CC(NC[C@H](O)c1ccc(O)c3[nH]c(=O)ccc13)C2` [INDACATEROL] showed a Ki in assay [3] of 0.77 µM.

Take `Cc1c(P(=S)(c2ccccc2)c2ccccc2)n2ccccc2[n+]1C/C=C/c1ccccc1`: the values for the Ki (in assay [1]; on Histamine H2 receptor) were 0.805 µM and 2.96 µM, respectively.

`O=c1ccc2ccc(OCCCCN3CCN(c4cccc5sccc45)CC3)cc2[nH]1` [BREXPIPRAZOLE]: the Ki came to 0.036 µM on D(4) dopamine receptor and 0.0656 µM in assay [3].

As for `O=S1(=O)c2cccc3cccc(c23)N1CCCN1CCN(c2ccc(F)cc2)CC1` [FANANSERIN], the inhibitory constant (Ki) at D(4) dopamine receptor stood at 0.0957 µM; in assay [3], 1.1 µM.

As to `CN(C)C(=O)N[C@H]1CC[C@H](CCN2CCN(c3cccc(Cl)c3Cl)CC2)CC1` [CARIPRAZINE HYDROCHLORIDE], the Ki in assay [2] turned out to be 0.222 µM.

Consider `Cc1nc2sccn2c(=O)c1CCN1CCC(=C(c2ccc(F)cc2)c2ccc(F)cc2)CC1` [RITANSERIN], for which the Ki on D(4) dopamine receptor was found to be 0.238 µM; in assay [3], 0.568 µM.

Regarding `Cc1cc(C)cc(-c2cnc3cc(Cl)c(-c4cccc(O)c4)cc3c2OCCCN)c1`, affinity on Translocator protein was put at a Ki of 0.522 µM. That is a sub-micromolar value.

In turn, `Cc1ccc2c(c1)c1c(n2CCc2ccc(C)nc2)CCN(C)C1` [LATREPIRDINE] yielded a Ki at Histamine H2 receptor of 0.215 µM.

At D(4) dopamine receptor, `C[C@H](Cc1cc2c(c(C(N)=O)c1)N(CCCO)CC2)NCCOc1ccccc1OCC(F)(F)F` [SILODOSIN] returned a Ki of 1.58 µM. That is a single-digit micromolar value.

In assay [2], `COc1ccc(NS(=O)(=O)c2sc3ccc(Cl)cc3c2C)cc1N1CCNCC1` gave a Ki of 4.46 µM.

Regarding `CN1CCC(=C2c3ccccc3CC(=O)c3sccc32)CC1` [KETOTIFEN FUMARATE], the affinity in assay [1] corresponds to a Ki of 0.244 µM.

As for `C[C@@H](NCCCc1cccc(C(F)(F)F)c1)c1cccc2ccccc12` [CINACALCET HYDROCHLORIDE], the Ki at Histamine H2 receptor was found to be 2.62 µM.

`COc1cccc([C@@H](C)NCCCc2ccccc2Cl)c1` [TECALCET HYDROCHLORIDE]: the Ki on Histamine H2 receptor is 1.4 µM.

In turn, `CN1C[C@H](C(=O)N[C@]2(C)O[C@@]3(O)[C@@H]4CCCN4C(=O)[C@H](Cc4ccccc4)N3C2=O)C[C@@H]2c3cccc4[nH]cc(c34)C[C@H]21` [DIHYDROERGOTAMINE MESYLATE] showed a Ki on D(4) dopamine receptor of 0.0328 µM.

For the compound `OCc1cc(C(O)CNCCCCCCOCCCCc2ccccc2)ccc1O` (stereo unspecified) [SALMETEROL], the Ki at D(4) dopamine receptor was 1.08 µM.

In turn, `S=C(NCCCc1c[nH]cn1)NCCCN(Cc1ccc(Cl)c(Cl)c1)c1ccc(Br)cn1` had an inhibition constant Ki in assay [3] of 0.209 µM.

As to `COc1cc(-n2cnc3cc(-c4ccc(Cl)cc4)sc3c2=O)ccc1OCCN1CCCC1`, the Ki (in assay [3]; at Histamine H4 receptor) was over 10 µM throughout.

Take `CN1CCN(c2ccc(Nc3c4ccccc4nc4ccccc34)cc2)CC1`: the figures for the inhibition constant Ki in assay [3] and in assay [1] were 1.15 µM and 0.204 µM, respectively.

`CN1C2CCC1CC(OC(c1ccc(F)cc1)c1ccc(F)cc1)C2` (stereo unspecified) displayed a Ki on Histamine H2 receptor of 0.594 µM. This lies in the sub-micromolar range.

As to `COc1ccc(NC(=O)c2ccc(-c3ccc(-c4noc(C)n4)cc3C)cc2)cc1OCCN(C)C`, the results for the Ki in assay [3] and in assay [1] were 0.833 µM and 0.641 µM, respectively.

As to `CCOC(=O)c1c(C)[nH]c2ccc3c(c12)CN1CCc2cc(OC)ccc2C1O3` (stereo unspecified), the Ki on Histamine H2 receptor stood at 2.84 µM.

As to `CCc1nn(CCCN2CCN(c3cccc(Cl)c3)CC2)c(=O)n1CCOc1ccccc1` [NEFAZODONE HYDROCHLORIDE], the Ki on D(4) dopamine receptor was 0.326 µM; at Translocator protein, 1.99 µM.

Turning to `NC[C@@H]1O[C@H](C23CC4CC(CC(C4)C2)C3)Cc2c1ccc(O)c2O`, the Ki at D(4) dopamine receptor amounted to 0.562 µM.
